Article PMC10041525, “New Dual Inhibitors of Bacterial Topoisomerases with Broad-Spectrum Antibacterial Activity and In Vivo Efficacy against Vancomycin-Intermediate Staphylococcus aureus” (Journal of Medicinal Chemistry, 2023)
Values after ≈ are worked out from the molar mass of the structure shown. Values joined by “and” are separate entries in the source; they are usually repeats but may differ in a detail not shown here. Identical values can stand only once. Like-named read-outs stand apart in the source and are kept apart here.

Assays:
Assay in all cases: MIC broth microdilution at IHMA Europe
[1] = system: Haemophilus influenzae (n = 14); format: cell-based, H. influenzae; conditions: for MIC: Haemophilus influenzae, read-out: MIC
E. faecium (n = 13) = format: cell-based; conditions: for MIC: Enterococcus faecium, read-out: MIC
S. pneumoniae (n = 12) = format: cell-based; conditions: for MIC: Streptococcus pneumoniae, read-out: MIC
[2] = system: Neisseria gonorrhoeae (n = 12); format: cell-based; conditions: for MIC: Neisseria gonorrhoeae, read-out: MIC

Cc1[nH]c(C(=O)Nc2nc3c(N4[C@@H]5CC[C@H]4COC5)cc(C(=O)O)cc3s2)c(Cl)c1Cl [7h, 4-((1R,5S)-3-Oxa-8-azabicyclo[3.2.1]octan-8-yl)-2-(3,4-dichloro-5-methyl-1H-pyrrole-2-carboxamido)benzo[d]thiazole-6-carboxylic Acid]
No. of isolates at MIC [1]: 5 and 4 | MIC ([1]; H. influenzae IHMA N° 1227715): 0.12 µg/mL (≈ 0.249 µM) | MIC ([1]; H. influenzae IHMA N° 1241620): 0.12 µg/mL (≈ 0.249 µM) | MIC ([1]; H. influenzae IHMA N° 1244149): 0.5 µg/mL (≈ 1.04 µM) | MIC ([1]; H. influenzae IHMA N° 1249803): 0.12 µg/mL (≈ 0.249 µM) | MIC ([1]; H. influenzae IHMA N° 1254355): 0.25 µg/mL (≈ 0.519 µM) | MIC ([1]; H. influenzae IHMA N° 1258580): 0.5 µg/mL (≈ 1.04 µM) | MIC ([1]; H. influenzae IHMA N° 1262734): 0.25 µg/mL (≈ 0.519 µM) | MIC ([1]; H. influenzae IHMA N° 1272723): 0.12 µg/mL (≈ 0.249 µM) | MIC ([1]; H. influenzae IHMA N° 1286846): 0.5 µg/mL (≈ 1.04 µM) | MIC ([1]; H. influenzae IHMA N° 1337530): 0.12 µg/mL (≈ 0.249 µM) | MIC ([1]; H. influenzae IHMA N° 1440085): 0.5 µg/mL (≈ 1.04 µM) | MIC ([1]; H. influenzae IHMA N° 1479509): 1 µg/mL (≈ 2.08 µM) | MIC ([1]; H. influenzae IHMA N° 1952952): 0.25 µg/mL (≈ 0.519 µM) | MIC ([1]; H. influenzae IHMA N° 2047461): 0.25 µg/mL (≈ 0.519 µM) | Cumulative % at MIC ([1]; MIC 0.5 µg/mL): 92.9% | Cumulative % at MIC ([1]; MIC 1 µg/mL): 100.0% | No. of isolates at MIC ([1]; MIC 1 µg/mL): 1 | MIC, all isolates ([1]; n = 14): ≤ 1 µg/mL | MIC (E. faecium (n = 13); E. faecium IHMA N° 1764866): ≤ 0.03 µg/mL | MIC (E. faecium (n = 13); E. faecium IHMA N° 1765436): 0.06 µg/mL (≈ 0.125 µM) | MIC (E. faecium (n = 13); E. faecium IHMA N° 1765746): ≤ 0.03 µg/mL | MIC (E. faecium (n = 13); E. faecium IHMA N° 1893573): ≤ 0.03 µg/mL | MIC (E. faecium (n = 13); E. faecium IHMA N° 1893846): 0.12 µg/mL (≈ 0.249 µM) | MIC (E. faecium (n = 13); E. faecium IHMA N° 1893942): 0.06 µg/mL (≈ 0.125 µM) | MIC (E. faecium (n = 13); E. faecium IHMA N° 1894055): 0.06 µg/mL (≈ 0.125 µM) | MIC (E. faecium (n = 13); E. faecium IHMA N° 1897027): 0.06 µg/mL (≈ 0.125 µM) | MIC (E. faecium (n = 13); E. faecium IHMA N° 1897101): ≤ 0.03 µg/mL | MIC (E. faecium (n = 13); E. faecium IHMA N° 1904592): ≤ 0.03 µg/mL | MIC (E. faecium (n = 13); E. faecium IHMA N° 2075051): 0.06 µg/mL (≈ 0.125 µM) | MIC (E. faecium (n = 13); E. faecium IHMA N° 2077718): ≤ 0.03 µg/mL | MIC (E. faecium (n = 13); E. faecium IHMA N° 2083787): ≤ 0.03 µg/mL | Cumulative % at MIC (E. faecium (n = 13); MIC 0.06 µg/mL): 92.3% | Cumulative % at MIC (E. faecium (n = 13); MIC […]): 100.0% | Cumulative % at MIC (E. faecium (n = 13); MIC ≤0.03 µg/mL): 53.8% | MIC, all isolates (E. faecium (n = 13); n = 13): ≤ 0.12 µg/mL | Cumulative % at MIC (S. pneumoniae (n = 12); MIC 0.06 µg/mL): 16.7% | Cumulative % at MIC (S. pneumoniae (n = 12); MIC 0.5 µg/mL): 100.0% | Cumulative % at MIC (S. pneumoniae (n = 12); MIC […]): 91.7% | MIC (S. pneumoniae (n = 12); S. pneumoniae IHMA N° 1775387): 0.25 µg/mL (≈ 0.519 µM) | MIC (S. pneumoniae (n = 12); S. pneumoniae IHMA N° 1776057): 0.5 µg/mL (≈ 1.04 µM) | MIC (S. pneumoniae (n = 12); S. pneumoniae IHMA N° 1785617): 0.25 µg/mL (≈ 0.519 µM) | MIC (S. pneumoniae (n = 12); S. pneumoniae IHMA N° 1800765): 0.25 µg/mL (≈ 0.519 µM) | MIC (S. pneumoniae (n = 12); S. pneumoniae IHMA N° 1811259): 0.06 µg/mL (≈ 0.125 µM) | MIC (S. pneumoniae (n = 12); S. pneumoniae IHMA N° 1831562): 0.25 µg/mL (≈ 0.519 µM) | MIC (S. pneumoniae (n = 12); S. pneumoniae IHMA N° 1902609): 0.25 µg/mL (≈ 0.519 µM) | MIC (S. pneumoniae (n = 12); S. pneumoniae IHMA N° 1979675): 0.25 µg/mL (≈ 0.519 µM) | MIC (S. pneumoniae (n = 12); S. pneumoniae IHMA N° 1991963): 0.25 µg/mL (≈ 0.519 µM) | MIC (S. pneumoniae (n = 12); S. pneumoniae IHMA N° 2057487): 0.25 µg/mL (≈ 0.519 µM) | MIC (S. pneumoniae (n = 12); S. pneumoniae IHMA N° 2073087): 0.25 µg/mL (≈ 0.519 µM) | MIC (S. pneumoniae (n = 12); S. pneumoniae IHMA N° 2117109): 0.06 µg/mL (≈ 0.125 µM) | MIC, all isolates (S. pneumoniae (n = 12); n = 12): ≤ 0.5 µg/mL | No. of isolates at MIC [2]: 8 and 4 | Cumulative % at MIC ([2]; MIC 0.06 µg/mL): 100.0% | Cumulative % at MIC ([2]; MIC ≤0.03 µg/mL): 66.7% | MIC ([2]; isolate IHMA 1123853): ≤ 0.03 µg/mL | MIC ([2]; isolate IHMA 1130935): ≤ 0.03 µg/mL | MIC ([2]; isolate IHMA 1130989): 0.06 µg/mL (≈ 0.125 µM) | MIC ([2]; isolate IHMA 1130991): ≤ 0.03 µg/mL | MIC ([2]; isolate IHMA 1137292): 0.06 µg/mL (≈ 0.125 µM) | MIC ([2]; isolate IHMA 1145734): ≤ 0.03 µg/mL | MIC ([2]; isolate IHMA 1145735): ≤ 0.03 µg/mL | MIC ([2]; isolate IHMA 1165897): ≤ 0.03 µg/mL | MIC ([2]; isolate IHMA 1194748): ≤ 0.03 µg/mL | MIC ([2]; isolate IHMA 1194750): ≤ 0.03 µg/mL | MIC ([2]; isolate IHMA 1546199): 0.06 µg/mL (≈ 0.125 µM) | MIC ([2]; isolate IHMA 1546215): 0.06 µg/mL (≈ 0.125 µM) | MIC, all isolates ([2]; n = 12): ≤ 0.06 µg/mL
